Calls of active or inactive are those of the source. The calls are words filed in the database; no cut-off is given here.
Legend:
HCC1428 [1] = assay: Induction of apoptosis in tamoxifen-induced senescent human HCC1428 cells assessed as decrease in Bcl2 level at 5 uM incubated for 24 hrs by Western blot analysis; format: functional, cell-based
ZR-75-30 [2] = assay: Effect on IL-8 level in human ZR-75-30 cells at 5 uM incubated for 24 hrs by immunostaining based imaging cytometric analysis; format: functional, cell-based
MCF7 = assay: Antitumor activity against ER-positive human MCF7 cells xenografted in Danio rerio embryo assessed as decrease in tumor size at 1 to 5 uM administered for 48 hrs by imaging analysis; format: functional, cell-based; conditions: dose 1-5 µM
MCF-10F [3] = assay: Induction of apoptosis in human MCF-10F cells assessed as assessed as phosphatidylserine externalization at 1 to 5 uM incubated for 24 hrs by Annexin V-FITC staining based flow cytometric analysis; format: functional, cell-based; conditions: dose 1-5 µM
Mitochondrial membrane [4] = assay: Induction of mitochondrial membrane potential depolarization in human MCF-10F cells at 5 uM incubated for 24 hrs by 7-AAD staining based flow cytometric analysis; format: cell membranes
MCF-10F [5] = assay: Effect on Bcl-rambo protein level in tamoxifen-induced senescent human MCF-10F cells at 1 to 5 uM incubated for 24 hrs by Western blot analysis; format: functional, cell-based; conditions: dose 1-5 µM
HCC1428 [6] = assay: Induction of apoptosis in tamoxifen-induced senescent human HCC1428 cells assessed as decrease in AKT level at 1 to 5 uM incubated for 24 hrs by Western blotting analysis; format: functional, cell-based; conditions: dose 1-5 µM
T47D = assay: Antitumor activity against ER-positive human T47D cells xenografted in Danio rerio embryo assessed as increase in p21 mRNA level at 1 to 5 uM administered for 48 hrs by RT-PCR analysis; format: functional, cell-based; conditions: dose 1-5 µM
HCC1428 [7] = assay: Induction of apoptosis in human HCC1428 cells assessed as phosphatidylserine externalization at 1 to 5 uM incubated for 24 hrs by Annexin V-FITC staining based flow cytometric analysis; format: functional, cell-based; conditions: dose 1-5 µM
Mitochondrial membrane [8] = assay: Induction of mitochondrial membrane potential depolarization in tamoxifen-induced senescent human ZR-75-30 cells assessed as increase in depolarized dead cell level at 1 to 5 uM incubated for 24 hrs by 7-AAD staining based flow cytometric analysis; format: cell membranes; conditions: dose 1-5 µM
HCC1500 [9] = assay: Induction of senescence in human HCC1500 cells assessed as […] in beta-galactosidase activity at 5 uM incubated for 24 hrs by immunostaining based imaging cytometric analysis; format: functional, cell-based
HCC1500 [10] = assay: Induction of apoptosis in tamoxifen-induced senescent human HCC1500 cells assessed as phosphatidylserine externalization at 1 to 5 uM incubated for 24 hrs by Annexin V-FITC staining based flow cytometric analysis; format: functional, cell-based; conditions: dose 1-5 µM
Mitochondrial membrane [11] = assay: Induction of mitochondrial membrane potential depolarization in human CAMA-1 cells at 1 uM incubated for 24 hrs by 7-AAD staining based flow cytometric analysis; format: cell membranes
ZR-75-30 [12] = assay: Induction of apoptosis in tamoxifen-induced senescent human ZR-75-30 cells assessed as phosphatidylserine externalization at 1 to 5 uM incubated for 24 hrs by Annexin V-FITC staining based flow cytometric analysis; format: functional, cell-based; conditions: dose 1-5 µM
HCC1428 [13] = assay: Induction of apoptosis in human HCC1428 cells assessed as decrease in Bcl2 level at 1 to 5 uM incubated for 24 hrs by Western blot analysis; format: functional, cell-based; conditions: dose 1-5 µM
HCC1428 [14] = assay: Induction of ubiquitin-independent mitophagy in tamoxifen-induced senescent human HCC1428 cells assessed as increase in BNIP3 level at 1 to 5 uM by immunostaining based imaging cytometric analysis; format: functional, cell-based; conditions: dose 1-5 µM
ZR-75-30 [15] = assay: Induction of apoptosis in tamoxifen-induced senescent human ZR-75-30 cells assessed as increase in caspase 3 level incubated for 24 hrs by immunostaining based imaging cytometric analysis; format: functional, cell-based
Mitochondrial membrane [16] = assay: Induction of mitochondrial membrane potential depolarization in human ZR-75-30 cells assessed as increase in fraction of depolarized dead cells at 5 uM incubated for 24 hrs by 7-AAD staining based flow cytometric analysis; format: cell membranes
HCC1428 [17] = assay: Induction of autophagy in tamoxifen-induced senescent human HCC1428 cells assessed as increase in ULK1 level at 1 to 5 uM by immunostaining based imaging cytometric analysis; format: functional, cell-based; conditions: dose 1-5 µM
[18] = target: Receptor-interacting serine/threonine-protein kinase 3 (Homo sapiens) (UniProt Q9Y572); assay: Induction of RIP3 phosphorylation in human HCC1428 cells at 1 to 5 uM incubated for 24 hrs by Western blot analysis; format: cell-based; conditions: dose 1-5 µM
CAMA-1 [19] = assay: Induction of apoptosis in tamoxifen-induced senescent human CAMA-1 cells assessed as phosphatidylserine externalization at 1 to 5 uM incubated for 24 hrs by Annexin V-FITC staining based flow cytometric analysis; format: functional, cell-based; conditions: dose 1-5 µM
CAMA-1 [20] = assay: Induction of apoptosis in tamoxifen-induced senescent human CAMA-1 cells assessed as decrease in HSP90 level incubated for 24 hrs by immunostaining based imaging cytometric analysis; format: functional, cell-based
HCC1428 [21] = assay: Induction of AMPK phosphorylation in tamoxifen-induced senescent human HCC1428 cells incubated for 24 hrs by immunostaining based imaging cytometric analysis; format: cell-based; conditions: filed as activator
ZR-75-30 [22] = assay: Induction of apoptosis in human ZR-75-30 cells assessed as phosphatidylserine externalization at 1 to 5 uM incubated for 24 hrs by Annexin V-FITC staining based flow cytometric analysis; format: functional, cell-based; conditions: dose 1-5 µM
ZR-75-30 [23] = assay: Induction of senescence in human ZR-75-30 cells assessed as […] in beta-galactosidase activity at 5 uM incubated for 24 hrs by immunostaining based imaging cytometric analysis; format: functional, cell-based
Mitochondrial membrane [24] = assay: Induction of mitochondrial membrane potential depolarization in tamoxifen-induced senescent human MCF-10F cells assessed as increase in depolarized dead cell level at 1 to 5 uM incubated for 24 hrs by 7-AAD staining based flow cytometric analysis; format: cell membranes; conditions: dose 1-5 µM
ZR-75-30 [25] = assay: Anticancer activity against ER-positive human ZR-75-30 cells assessed as effect on metabolic activity upto 10 uM incubated for 24 hrs by MTT assay; format: functional, cell-based
HCC1500 [26] = assay: Induction of apoptosis in human HCC1500 cells assessed as phosphatidylserine externalization at 1 to 5 uM incubated for 24 hrs by Annexin V-FITC staining based flow cytometric analysis; format: functional, cell-based; conditions: dose 1-5 µM
HCC1428 [27] = assay: Induction of apoptosis in tamoxifen-induced senescent human HCC1428 cells assessed as increase in caspase 3 level incubated for 24 hrs by immunostaining based imaging cytometric analysis; format: functional, cell-based
HCC1428 [28] = assay: Induction of alternative mitophagy in tamoxifen-induced senescent human HCC1428 cells assessed as increase in Rab9 level at 1 to 5 uM by immunostaining based imaging cytometric analysis; format: functional, cell-based; conditions: dose 1-5 µM

Sequence of Receptor-interacting serine/threonine-protein kinase 3 (Homo sapiens) (Q9Y572 whole entry, looked up): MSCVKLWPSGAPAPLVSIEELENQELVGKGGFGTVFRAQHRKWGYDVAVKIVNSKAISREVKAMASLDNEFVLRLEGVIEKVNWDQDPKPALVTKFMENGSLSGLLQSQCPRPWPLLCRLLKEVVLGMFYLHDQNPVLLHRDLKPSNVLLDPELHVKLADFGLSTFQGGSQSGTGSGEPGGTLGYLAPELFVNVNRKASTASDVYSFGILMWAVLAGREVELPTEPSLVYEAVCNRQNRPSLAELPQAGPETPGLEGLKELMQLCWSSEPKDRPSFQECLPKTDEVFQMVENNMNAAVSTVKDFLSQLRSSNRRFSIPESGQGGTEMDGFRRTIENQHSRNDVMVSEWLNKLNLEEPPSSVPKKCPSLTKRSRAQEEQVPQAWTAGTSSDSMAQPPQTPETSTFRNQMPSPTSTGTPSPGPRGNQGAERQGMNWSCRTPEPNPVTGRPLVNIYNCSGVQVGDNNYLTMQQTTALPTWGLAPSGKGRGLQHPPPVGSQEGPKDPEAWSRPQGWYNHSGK

Activity (Mitochondrial membrane [4]): inactive
Activity (Mitochondrial membrane [8]): Active
Activity (Mitochondrial membrane [11]): Active
Activity (Mitochondrial membrane [16]): Active
Activity [18]: inactive
Activity (Mitochondrial membrane [24]): inactive
Compound: CC(=O)Oc1ccc2c(=O)c(OCCCC[P+](c3ccccc3)(c3ccccc3)c3ccccc3)c(-c3ccc4c(c3)OC(c3ccccc3)(c3ccccc3)O4)oc2c1.[I-]
Activity (HCC1428 [1]): Active
Activity (ZR-75-30 [2]): inactive
Activity (MCF7): Active
Activity (MCF-10F [3]): inactive
Activity (MCF-10F [5]): inactive
Activity (HCC1428 [6]): Active
Activity (T47D): Active
Activity (HCC1428 [7]): Active
Activity (HCC1500 [9]): Active
Activity (HCC1500 [10]): Active
Activity (ZR-75-30 [12]): Active
Activity (HCC1428 [13]): Active
Activity (HCC1428 [14]): inactive
Activity (ZR-75-30 [15]): Active
Activity (HCC1428 [17]): Active
Activity (CAMA-1 [19]): Active
Activity (CAMA-1 [20]): Active
Activity (HCC1428 [21]): Active
Activity (ZR-75-30 [22]): Active
Activity (ZR-75-30 [23]): Active
Activity (ZR-75-30 [25]): Active
Activity (HCC1500 [26]): Active
Activity (HCC1428 [27]): Active
Activity (HCC1428 [28]): inactive
